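Tested at 5 concentrations; 48 h exposure; 96-well plates; endpoints linearly interpolated, else capped at highest concentration. Abbreviation: GI50, concentration required for 50% inhibition of growth.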 The source made the active and inactive calls. Rule as the data show it: active = GI50 up to about 1.1 µM and inactive = higher.
Columns and labels:
Experiment in all cases: NCI tumour cell line growth inhibition, 48 h
[1] = test system: OVCAR-8
[2] = test system: EKVX
[3] = test system: CAKI-1
[4] = test system: SK-OV-3
[5] = test system: TK-10
[6] = test system: SR
[7] = test system: NCI-H226
[8] = test system: LOX IMVI
[9] = test system: SN12C
[10] = test system: OVCAR-5
[11] = test system: K562
[12] = test system: Hs-578T
[13] = test system: ACHN
[14] = test system: BT-549
[15] = test system: HOP-92
[16] = test system: HL-60
[17] = test system: HCC 2998
[18] = test system: HCT-116
[19] = test system: NCI-H460
[20] = test system: SF-268

Measured: GI50

N=C(N)NS(=O)(=O)c1ccc(NNc2c3ccccc3nc3c(C(=O)Nc4ccc(S(N)(=O)=O)cc4)cccc23)cc1
inactive: [1] 36.1 µM | [2] 80.2 µM | [3] > 100 µM | [4] > 100 µM | [5] > 100 µM | [6] 5.37 µM | [7] 92 µM | [8] 10.4 µM | [9] 43.8 µM | [10] 76 µM | [11] 19.9 µM | [12] 18.4 µM | [13] 52.7 µM | [14] 19.5 µM | [15] 15.1 µM | [16] 23.9 µM | [17] 19.5 µM | [18] 28.9 µM | [19] 19.7 µM | [20] 16.8 µM

CC1CCCCCC(=O)c2c(O)cc(O)cc2CC(=O)O1 (stereo not given) [CURVULARIN]
inactive: [1] > 100 µM | [2] 61.5 µM | [3] > 100 µM | [4] > 100 µM | [5] 90.2 µM | [6] 44.5 µM | [7] > 100 µM | [8] 43.9 µM | [9] > 100 µM | [10] > 100 µM | [11] 41.6 µM | [12] > 100 µM | [13] > 100 µM | [14] 54.1 µM | [15] > 100 µM | [16] 54.3 µM | [17] > 100 µM | [18] > 100 µM | [19] 98.2 µM | [20] > 100 µM

NC(=O)NCCCC(NC(=O)OCCCCCCn1ccc(=O)[nH]c1=O)C(=O)O (stereo not given)
inactive: [1] > 100 µM | [2] > 100 µM | [3] > 100 µM | [4] > 100 µM | [5] > 100 µM | [6] 9.42 µM | [7] > 100 µM | [8] > 100 µM | [9] 50.2 µM | [10] > 100 µM | [11] > 100 µM | [12] > 100 µM | [13] > 100 µM | [14] > 100 µM | [15] > 100 µM | [16] > 100 µM | [17] > 100 µM | [18] > 100 µM | [19] > 100 µM | [20] > 100 µM

COc1cc2cc(C(=O)N3CC(COS(C)(=O)=O)c4ccc(NC(=O)OCc5ccccc5)cc43)[nH]c2c(OC)c1OC (stereo not given)
inactive: [1] > 100 µM | [2] > 100 µM | [3] > 100 µM | [4] > 100 µM | [5] > 100 µM | [6] 3.24 µM | [7] > 100 µM | [8] > 100 µM | [9] > 100 µM | [10] > 100 µM | [11] > 100 µM | [12] > 100 µM | [13] > 100 µM | [14] > 100 µM | [15] 9.59 µM | [16] > 100 µM | [17] 84.3 µM | [18] > 100 µM | [19] 91.8 µM | [20] > 100 µM

Cc1cc(O)c2c(c1O)C(=O)c1c(O)ccc(O)c1C2=O [Cynodontin]
inactive: [1] > 100 µM | [2] > 100 µM | [3] > 100 µM | [4] > 100 µM | [5] > 100 µM | [6] > 100 µM | [7] > 100 µM | [8] > 100 µM | [9] > 100 µM | [10] > 100 µM | [11] > 100 µM | [12] > 100 µM | [13] > 100 µM | [14] > 100 µM | [15] > 100 µM | [16] > 100 µM | [17] > 100 µM | [18] > 100 µM | [19] > 100 µM | [20] > 100 µM

O=C(O)c1c2c(cc3c1CC(Cc1ccccc1)C3=O)CCC2 (stereo not given)
inactive: [1] > 100 µM | [2] > 100 µM | [3] > 100 µM | [4] > 100 µM | [5] > 100 µM | [6] 67.5 µM | [7] > 100 µM | [8] 26 µM | [9] > 100 µM | [10] > 100 µM | [11] 75.2 µM | [12] > 100 µM | [13] 63 µM | [14] > 100 µM | [15] 29.5 µM | [16] 22.4 µM | [17] > 100 µM | [18] 89.9 µM | [19] 74.8 µM | [20] > 100 µM

COc1ccc(/C=C/C(=N/NC(=O)N/N=C(/C=C/c2ccc(OC)cc2)C(C)C)C(C)C)cc1
inactive: [1] 75 µM | [2] 40 µM | [3] > 100 µM | [4] > 100 µM | [5] 50 µM | [6] > 100 µM | [7] > 100 µM | [8] > 100 µM | [9] > 100 µM | [10] 99.5 µM | [11] 37.8 µM | [12] > 100 µM | [13] 73.8 µM | [14] > 100 µM | [15] 66.7 µM | [16] 33 µM | [17] 38.7 µM | [18] 66.1 µM | [19] 48.3 µM | [20] > 100 µM
